“Also recorded” adds a separate entry of the source. Structures can show the parent of a compound that is named as a salt. Where two headings read alike, the source gives them in different places. Numbered stars: 1 amine (or outer) side, 2 acyl side, 3 side chain; on linkers, the order of the positions; unused ones are H or OH. Bridge positions count the residues as written; N and C are the ends. Square brackets hold non-standard residues; d marks the D form. Peptide text beside a SMILES is read from it. I, II: the chains in the order shown. Actinocin(9to1) = Cc1c2oc3c(C)ccc(C(=O)[*:1])c3nc-2c(C(=O)[*:2])c(N)c1=O; NMeV = CN[C@H](C(=O)O)C(C)C; Sar = CNCC(=O)O
Legend:
VSV-eGFP-SARS-CoV-2 [1] = assay: microbe, parasite or virus in culture; format: cell-based; conditions: for inhibition at 1 µM: read-out: inhibition of VSV-eGFP-SARS-CoV-2 infection, 1 μM; for inhibition at 5 µM: read-out: inhibition of VSV-eGFP-SARS-CoV-2 infection, 5 μM; for inhibition at 10 µM: read-out: inhibition of VSV-eGFP-SARS-CoV-2 infection, 10 μM; for IC50: read-out: IC50 against VSV-eGFP-SARS-CoV-2 infection
VSV-eGFP-SARS-CoV-2 [2] = format: cell-based; conditions: 1 μM
rVSV-G-GFP = format: cell-based, vesicular stomatitis virus (VSV)
[3] = tested on: ACE2-Spike dependent syncytia formation; format: cell-based, human; conditions: IC50 concentration; for initiation of pseudoviral infection: control 7 hpi; for initiation of syncytia formation: imaging up to 24 hpi, control 12 hpi
[4] = tested on: SiHa ACE2 Cerulean H2B mCherry cells
[5] = Severe acute respiratory syndrome coronavirus 2, SiHa

Row | Compound | inhibition at 1 µM (VSV-eGFP-SARS-CoV-2 [1]; [5]) [%] | inhibition at 5 µM (VSV-eGFP-SARS-CoV-2 [1]; [5]) [%] | inhibition at 10 µM (VSV-eGFP-SARS-CoV-2 [1]; [5]) [%] | rVSV-G-GFP infection inhibition (in words) (rVSV-G-GFP) | initiation of pseudoviral infection [3] [hpi] | initiation of syncytia formation [3] | other results
1 | COc1ccc(/C=C/C(=O)c2ccccc2)cc1 [4-Methoxychalcone, reference compound] | -11 | -7 | 26 |  |  |  | 
2 | CO[C@H]1/C=C\C=C(/C)C(=O)NC2=CC(=O)C(N)=C(C[C@@H](C)C[C@H](OC)[C@H](O)[C@@H](C)/C=C(\C)[C@@H]1OC(N)=O)C2=O [17-Aminodemethoxygeldanamycin] |  |  |  | moderate inhibition | 8 | 12 hpi | IC50 (VSV-eGFP-SARS-CoV-2 [1]): 560 nM; inhibition of VSV-eGFP-SARS-CoV-2 infection after pre-treatment of cells (VSV-eGFP-SARS-CoV-2 [2]): 50%; inhibitory activity after preincubation of cells with natural product (in words) (VSV-eGFP-SARS-CoV-2 [2]): having inhibitory activity; also recorded: moderate level of viral entry inhibition
3 | CC(=O)O[C@@]1(C)C[C@@H]([C@H](O)CC2CC(=O)NC(=O)C2)C(=O)[C@@H](C)C1 [Acetoxycycloheximide] |  | 100 | 100 | moderate level of inhibition | 10 | 21 hpi | IC50 (VSV-eGFP-SARS-CoV-2 [1]; [5]): 640 nM
4 | CC(=O)O[C@H]1C[C@H](O[C@H]2[C@@H](O)C[C@H](O[C@H]3[C@@H](O)C[C@H](O[C@H]4CC[C@@]5(C)[C@H](CC[C@@H]6[C@@H]5C[C@@H](O)[C@]5(C)[C@@H](C7=CC(=O)OC7)CC[C@]65O)C4)O[C@@H]3C)O[C@@H]2C)O[C@H](C)[C@H]1O[C@@H]1O[C@H](CO)[C@@H](O)[C@H](O)[C@H]1O [Allocor] | 49 | 89 | 92 |  |  |  | 
5 | C[C@H](N)C(=O)N[C@@H]1[C@H]2C(=C(O)C[C@@H](O)[C@@H]2O)C(=O)O[C@]1(C)C(Cl)Cl [Bactobolin] | 56 | 99 | 100 |  |  |  | 
6 | C[C@H]1CCC/C=C/[C@@H]2C[C@H](O)C[C@H]2[C@H](O)/C=C/C(=O)O1 [Brefeldin A] | 66 | 82 | 86 |  |  |  | 
7 | Cc1c2oc3c(C)ccc(C(=O)N[C@@H]4C(=O)N[C@H](C(C)C)C(=O)N5CCC[C@H]5C(=O)N(C)CC(=O)N(C)[C@@H](C(C)C)C(=O)O[C@@H]4C)c3nc-2c(C(=O)N[C@@H]2C(=O)N[C@H](C(C)C)C(=O)N3CCC[C@H]3C(=O)N(C)CC(=O)N(C)[C@@H](C(C)C)C(=O)O[C@@H]2C)c(N)c1=O [Dactinomycin, reference compound] (I: T[dV]P[Sar][NMeV] / II: T[dV]P[Sar][NMeV]; ester I:1-I:C, II:1-II:C; linker I:N-II:N via Actinocin(9to1)) | 39 | 56 | 58 |  |  |  | 
8 | COc1cccc2c1C(=O)c1c(O)c3c(c(O)c1C2=O)C[C@@](O)(C(C)=O)C[C@@H]3O[C@H]1C[C@H](N)[C@H](O)[C@H](C)O1 [Daunorubicin hydrochloride, reference compound] | -16 | 40 | 41 |  |  |  | 
9 | CC[C@H](C)[C@H]1NC(=O)[C@@H](NC(=O)[C@@H](CC(C)C)N(C)C(=O)[C@@H]2CCCN2C(=O)C(C)O)[C@@H](C)OC(=O)[C@H](Cc2ccc(OC)cc2)N(C)C(=O)[C@@H]2CCCN2C(=O)[C@H](CC(C)C)NC(=O)[C@@H](C)C(=O)[C@H](C(C)C)OC(=O)C[C@@H]1O (some centres unmarked) [Didemnin B] |  | 100 | 100 | could inhibit the VSVG infection; also recorded: rVSV-G-GFP inhibition | 8 | no syncytia was observed | IC50 (VSV-eGFP-SARS-CoV-2 [1]; [5]): 190 nM; inhibitory activity after preincubation of cells with natural product (in words) (VSV-eGFP-SARS-CoV-2 [2]): having inhibitory activity; also recorded: could inhibit viral infection; cellular toxicity (H2B mCherry nuclear condensation) [4]: exhibited toxicity at higher doses; toxicity at IC50 dose [4]: minimum toxicity; initiation of syncytia formation ([3]; listed as Didemin B): inhibits syncytia formation
10 | CC[C@](C)(O)C(=O)O[C@H]1C(=O)O[C@@H]2C[C@H]3C(C)=C[C@H](O)[C@@H](O)[C@]3(C)[C@H]3[C@]4(O)OC[C@]32[C@@H]1[C@@H](C)[C@H]4O [Glaucarubin] | -7 | -1 | 33 |  |  |  | 
11 | CC1=C2C(=CC(C)(C)[C@@H]2O)C(=O)[C@](C)(O)C12CC2 [Illudin M] | 31 | 54 | 73 |  |  |  | 
12 | CC(=O)O[C@H]1C[C@H](O[C@H]2[C@@H](O)C[C@H](O[C@H]3[C@@H](O)C[C@H](OC4CC[C@@]5(C)[C@H](CC[C@@H]6[C@@H]5CC[C@]5(C)[C@@H](C7=CC(=O)OC7)CC[C@]65O)C4)O[C@@H]3C)O[C@@H]2C)O[C@H](C)[C@H]1O[C@@H]1O[C@H](CO)[C@@H](O)[C@H](O)[C@H]1O (some centres unmarked) [Lanatoside A] | 81 | 97 | 98 |  |  |  | 
13 | CCCCCC1=C/C(=C/c2[nH]c(-c3ccc[nH]3)cc2OC)N=C1C [Prodigiosin] | 86 | 98 | 100 |  |  |  | 
14 | C[C@@H]1O[C@@H](O[C@@H]2C=C3CC[C@@H]4[C@H](CC[C@]5(C)[C@@H](c6ccc(=O)oc6)CC[C@]45O)[C@@]3(C)CC2)[C@H](O)[C@H](O)[C@H]1O [Proscillaridin, reference compound] |  | 98 | 99 | moderate inhibition | 8 | 16 hpi | IC50 (VSV-eGFP-SARS-CoV-2 [1]; [5]): 220 nM
15 | C[C@@H]1O[C@@H](O[C@@H]2C=C3CC[C@@H]4[C@H](CC[C@]5(C)[C@@H](c6ccc(=O)oc6)CC[C@]45O)[C@@]3(C)CC2)[C@H](O)[C@H](O)[C@H]1O[C@@H]1O[C@H](CO)[C@@H](O)[C@H](O)[C@H]1O [Scillaren A] |  |  |  | moderate level of inhibition | 8 | 22 hpi | IC50 (VSV-eGFP-SARS-CoV-2 [1]): 410 nM
16 | CSC[S@+]([O-])C[C@H](CO)NC(=O)/C=C/c1c(C)[nH]c(=O)[nH]c1=O [Sparsomycin] | -2 | 80 | 94 |  |  |  | 
17 | COC1=C(N)C(=O)c2nc(-c3nc(C(=O)O)c(C)c(-c4ccc(OC)c(OC)c4O)c3N)ccc2C1=O [Streptonigrin] |  | 100 | 100 | could inhibit the VSVG infection; also recorded: rVSV-G-GFP inhibition | 8 | 12 hpi | IC50 (VSV-eGFP-SARS-CoV-2 [1]; [5]): 380 nM; toxicity at IC50 dose [4]: minimum toxicity
18 | CC[C@]1(O)C[C@H]2CN(CCc3c([nH]c4ccccc34)[C@@](C(=O)OC)(c3cc4c(cc3OC)N(C=O)[C@H]3[C@@](O)(C(=O)OC)[C@H](OC(C)=O)[C@]5(CC)C=CCN6CC[C@]43[C@@H]65)C2)C1 [Vincristine sulfate, reference compound] | 32 | 38 | 39 |  |  |  | 
19 | Casirivimab |  |  |  |  |  |  | inhibition of VSV-eGFP-SARS-CoV-2 infection (in words) (VSV-eGFP-SARS-CoV-2 [1]): inhibition of VSV-eGFP-SARS-CoV-2 infection; IC50 (VSV-eGFP-SARS-CoV-2 [1]): 0.045 nM

From article PMC10373420, “A high-throughput screening system for SARS-CoV-2 entry inhibition, syncytia formation and cell toxicity” (Biological Procedures Online, 2023)
